# pEC50: −log10 of the molar value. Where two headings read alike, the source gives them in different places. Where no end group is shown, it is not given here.
# Columns and labels:
# [1] = test system: HL60 cells; format: cell-based, human
# Experimental: Cells were cultivated following the method as described in Example 4, except that the RPMI-1640 medium containing contained 15% of FCS, and that in order to differentiate the HL60 cells into neutrophil-like cells, a cell suspension was prepared such that the cell density in the flask would be 0.5×10^6 cells/ml at the time of addition of db-cAMP (final concentration, 0.5 mM). The β-HA secretion promoting activities of COSP-1 and fMLP were measured 24, 48 and 72 hours after the differentiation.
# [2] = test system: differentiated HL60 cells; format: cell-based, human; conditions: for secretion of β-HA upon stimulation after PTX treatment: cells treated with 50 ng/ml PTX for 16 hours; for Percentage of maximum secretion activity (%/control): control = β-HA released upon 10 μM fMLP; for β-HA secretion from differentiated HL60 cells (%/total): total = β-HA released with 0.05% Triton X-100
# Experimental: a. Cultivation of HL60 Cells and Induction to the Differentiated Neutrophil-Like Cells For cultivation, heat-inactivated FCS (final concentration; 10%), streptomycin (final concentration; 100 mg/l), penicillin G (final concentration of 10^5 units/l) and RPMI-1640 culture solution containing 10 mM Hepes (pH 7.4) were used. Cells were cultivated at a cell density of 2×10^5-1.5×10^6 cells/ml in a plastic flask (80 cm^2, 260 ml, Nunc) at 37° C. under stationary conditions with a 5% of CO2 concentration and a 100% of humidity. […] c. […] Measuring β-HA Enzyme Activity The amount of β-HA secreted into the reaction supernatant was determined by measuring the absorbance at 415 nm of p-nitrophenol that was generated by an enzymatic reaction involving p-nitrophenyl N-acetyl-β-D-glucosaminide as a substrate. To be specific, 90 μl of the reaction supernatant was transferred to a 96-well Immuno plate (Nunc) and 60 μl of a substrate solution (10 mM p-nitrophenyl N-acetyl-β-D-glucosaminide/40 mM citrate, 70 mM Na2HPO4, pH 4.5) was added to initiate an enzymatic reaction. Following a 1-hr reaction at 37° C., 100 μl of a reaction quencher (400 mM glycine, pH 10.7) was added to stop the reaction and the absorbance at 415 nm was measured. As a control, cells were treated with Triton X-100 at a final concentration of 0.05% and the amount of β-HA in the supernatant was measured. As another control, the amount of β-HA secreted from cells upon stimulation with fMLP at a final concentration of 10 μM was measured.
# [3] = test system: HL60 cells; format: cell-based, human; remark: listed apart in the source
# [4] = test system: differentiated HL60 cells; experiment: Migration promoting activity (Chemotaxis Cells), differentiated HL60 cells; format: cell-based, human
# Experimental: The migration promoting activity of each of the polypeptides of interest was measured using Chemotaxis Cells (Kurabo) as follows: The differentiated HL60 cells or undifferentiated HL60 cells were washed three times with ice-cooled HBHS and a cell suspension was prepared at a cell density of 4×10^6 cells/ml. The cell suspension was incubated at 37° C. for 10 minutes; thereafter, 500 μl of the cell suspension was transferred to Chemotaxis Cells (2×10^6 cells/Cell), which were put on a micro-well plate filled with pre-heated (37° C.) HBHS containing 1 ml of polypeptide and incubation was performed at 37° C. for 1 hour. Then, the Chemotaxis Cells were removed from the plate and the number of cells that had migrated in each well was counted.
# Migration promoting activity was expressed by a chemotaxis index, or the number of cells that migrated upon stimulation was divided by the number of cells migrated without stimuli.
# The activity of the human homologues of COSP-1 and fCyt b (1-15) for promoting β-HA secretion and migration promoting activities were measured following the methods described in Examples 4 and 5, respectively. The activity for β-HA secretion was expressed by the percentage for the maximum amount of secretion upon stimulation with 10 μM of fMLP, whereas the activity for migration was expressed by a chemotaxis index, i.e., the ratio of the number of stimulated migrating cells to that of unstimulated migrating cells.
# [5] = test system: human neutrophils; experiment: β-HA secretion from human neutrophils; format: cell-based; conditions: for β-HA secretion from neutrophil cells (%/total): human neutrophils; for secretion of β-HA from human neutrophils: stimulation with 10 μM
# Experimental: b. Preparation of Human Leukocytes
# Thirty milliliters of human peripheral blood (containing 500 units of heparin sodium) was plated on 5 ml of Lymphocepal I in each of 4 centrifugal tubes and spun down (400 g, 30 min) at room temperature. After spinning, the monocytes and lymphocytes forming a turbid layer at the interface between the plasma and Lymphocepal I were carefully taken to be removed. […] The Percoll layer containing neutrophils was carefully taken and washed with physiological saline. Then, it was replaced by a 0.2% NaCl solution and about 30 seconds later, an equal amount of 1.6% NaCl aqueous solution was added; this procedure was repeated twice, whereby the left erythrocytes were lysed and neutrophils were isolated.
# The purities of these monocyte-lymphocyte mixed cells and neutrophils were assayed by analysis with a flow cytometer. Propidium iodide was added to the cell suspension at a final concentration of 100 ng/ml in order to stain dead cells. Using a flow cytometer, forward scatter intensity and side scatter intensity were measured on a linear scale only for the negative cells (living cells) in the cell suspension for the propidium iodide-staining. The results were processed by CellQuest software and represented as a dot plot of forward scatter intensity (X-axis) and side scatter intensity (Y-axis). The purify of monocycle-lymphocyte mixed cells were 84% and that of the neutrophils were 83%. […]
# c. Stimulation of the Cell […]
# d. Measuring β-HA Enzyme Activity
# The amount of β-HA secreted into the reaction supernatant was determined by measuring the absorbance at 415 nm of p-nitrophenol that was generated by an enzymatic reaction involving p-nitrophenyl N-acetyl-β-D-glucosaminide as a substrate. To be specific, 90 μl of the reaction supernatant was transferred to a 96-well Immuno plate (Nunc) and 60 μl of a substrate solution (10 mM p-nitrophenyl N-acetyl-β-D-glucosaminide/40 mM citrate, 70 mM Na2HPO4, pH 4.5) was added to initiate an enzymatic reaction. Following a 1-hr reaction at 37° C., 100 μl of a reaction quencher (400 mM glycine, pH 10.7) was added to stop the reaction and the absorbance at 415 nm was measured. As a control, cells were treated with Triton X-100 at a final concentration of 0.05% and the amount of β-HA in the supernatant was measured. As another control, the amount of β-HA secreted from cells upon stimulation with fMLP at a final concentration of 10 μM was measured.
Compound,pEC50 ([1]; 24 h),pEC50 ([1]; 48 h),pEC50 ([1]; 72 h),"Max. (%/total), maximum secretion on average ([1]; Differentiation 24 hr)","Max. (%/total), maximum secretion on average ([1]; Differentiation 48 hr)","Max. (%/total), maximum secretion on average ([1]; Differentiation 72 hr)",secretion of β-HA upon stimulation after PTX treatment [2],Percentage of maximum secretion activity (%/control) [2],β-HA secretion from differentiated HL60 cells (%/total) [2],β-HA secretion to the undifferentiated HL60 cells [3],activity for migration at the concentrations where β-HA secretion was observed ([4]; Example 12),concentrations of migration activity relative to the concentration for β-HA secretion ([4]; Example 12),β-HA secretion from neutrophil cells (%/total) [5],secretion of β-HA from human neutrophils [5],"promoted secretion of β-HA under Boc-MLF treatment ([2]; Boc-MLF treatment, data not shown)",migration promoting (attracting) activity [4]
"CSCC[C@H](NC=O)C(=O)N[C@@H](CC(C)C)C(=O)N[C@@H](Cc1ccccc1)C(=O)O [fMLP, formyl methionyl-leucyl-phenylalanine, reference compound]",6.96,7.66,8.03,17.4 %/total,40.6 %/total,48.4 %/total,almost completely inhibited,100 %/control,67.4 %/total,Neither COSP-1 nor fMLP caused the β-HA secretion,also observed,observed at concentrations lower,68.3 %/total,68.3%,–,–
LSFLIPAGWVLSHLDHYKRSSAA-OH [COSP-1],5.92,6.35,6.57,15.6 %/total,35.7 %/total,45.3 %/total,almost completely inhibited,93.6 ± 2.8 %/control,63.1 %/total,Neither COSP-1 nor fMLP caused the β-HA secretion,–,–,40.5 %/total,40.5%,significantly suppressed,attracting activity

# — patent US7285618B1, “Polypeptides having neutrophil stimulating activity” (Japan Tobacco Inc., priority 2000, dated 2007)
